Experimental findings from ChEMBL document CHEMBL1144007, “Activity of Mannich bases of 7-hydroxycoumarin against Flaviviridae” (Bioorg Med Chem, 2008) are described below.

Activity calls are given as the source filed them. No rule for the calls is given here.

Data set [1] concerns Vesicular stomatitis virus. The data set is described as follows: Antiviral activity against vesicular stomatitis virus. The data set is classed as functional, organism-based.
The next data set has as its system Vaccinia virus. The data set is described as follows: Antiviral activity against vaccinia virus. The settings on record: Orthopoxvirus vaccinia. The data set is classed as functional, organism-based.
In another data set the test system is Reovirus sp. Kind of data set: Antiviral activity against Reovirus. Format: functional, organism-based.
For data set [2], the system named is Human immunodeficiency virus 1. The data set is described as follows: Antiviral activity against HIV1. The data set is classed as functional, organism-based.
The nature of data set [3]: Cytotoxicity against human MT4 cells after 96 hrs by MTT method. The data set is classed as cell-based.
For data set [4], the system named is Bovine viral diarrhea virus 1. The data set is described as follows: Antiviral activity against BVDV NADL in MDBK cells assessed as protection from virus-induced cytopathogenicity by MTT method. The data set is classed as functional, organism-based. The settings on record: Bovine viral diarrhea virus isolates and strains.
The next data set concerns Yellow fever virus. Kind of data set: Antiviral activity against YFV in BHK cells assessed as protection from virus-induced cytopathogenicity by MTT method. Format: functional, organism-based.
The subject of data set [5] is Respiratory syncytial virus. The data set is described as follows: Antiviral activity against RSV A2 in VERO76 cells assessed as reduction of plaque number by MTT method. Format: functional, organism-based. The settings on record: human respiratory syncytial virus, A2, Vero 76. For orientation: Tetrazolium dyes change colour on reduction, which living cells bring about.

The test system of a further data set is Poliovirus 1. The data set is described as follows: Antiviral activity against Human poliovirus 1 Sabin. The data set is classed as functional.

Broadly, the CC50 is the concentration that lowers cell viability or growth by half. A word on the EC50: it is the concentration that produces a half-maximal response.

As for `CC(=O)c1ccc(N2CCN(Cc3c(O)ccc4ccc(=O)oc34)CC2)cc1`, the result (in [1]; with Vaccinia virus; with Reovirus sp.; in data set [2]; with Poliovirus 1) was inactive. The compound further had a CC50 at 96 h in data set [3] of 18 µM. In addition, the EC50 (in [4]; with Yellow fever virus; in data set [5]) was above 100 µM throughout.
Take `CCC(=O)Oc1ccc2c(C)cc(=O)oc2c1Cc1c(C)[nH]c2ccccc12`: the result (in [1]; in the data set with Vaccinia virus; in the data set with Reovirus sp.; in [2]; with Poliovirus 1) was inactive. Further, half-maximal cytotoxicity in data set [3] (CC50 at 96 h) was put at 31 µM. In addition, the EC50 in data set [4] is above 87 µM; in the data set on Yellow fever virus, above 100 µM; in [5], 45 µM.
For the compound `Cc1cc(=O)oc2c(CN3CCN(C/C=C/c4ccccc4)CC3)c(O)ccc12`, the outcome (in data set [1]; in the data set with Vaccinia virus; with Reovirus sp.; in data set [2]; in the data set with Poliovirus 1) was inactive. This compound yielded a CC50 at 96 h in data set [3] of 28 µM. Besides, the EC50 in data set [4] is above 18 µM; in the data set on Yellow fever virus, above 53 µM; in [5], above 100 µM.
Take `CC(=O)Oc1ccc2c(C)cc(=O)oc2c1Cc1c[nH]c2ccccc12`: the result (in data set [1]; in the data set on Vaccinia virus; in the data set with Reovirus sp.; in data set [2]; in the data set on Poliovirus 1) was inactive. The compound further came in with a CC50 at 96 h in data set [3] of 100 µM. Further, the EC50 was at least 100 µM in data set [4], above 81 µM in the data set with Yellow fever virus and above 100 µM in [5].
Turning to `O=c1ccc2ccc(O)c(CN3CCN(C/C=C/c4ccccc4)CC3)c2o1`, the result (in data set [1]; in the data set on Vaccinia virus; in the data set with Reovirus sp.; in [2]; in the data set on Poliovirus 1) was inactive. Moreover, in [3], the CC50 at 96 h is 5 µM. The EC50 in data set [4] was above 24 µM; with Yellow fever virus, above 59 µM; in [5], above 100 µM.
`CC(=O)Oc1ccc2ccc(=O)oc2c1Cc1c(N(C)C)oc2ccc3ccccc3c2c1=O`: the outcome (in [1]; in the data set with Vaccinia virus; in the data set on Reovirus sp.; in data set [2]; in the data set on Poliovirus 1) was inactive. In [3], this compound yielded a CC50 at 96 h of 80 µM. The EC50 in data set [4] is above 48 µM; in the data set with Yellow fever virus it was above 52 µM; in data set [5], above 30 µM.
`COc1ccc2c(=O)c(Cc3c(OC(C)=O)ccc4ccc(=O)oc34)c(N(C)C)oc2c1`: the outcome (in data set [1]; in the data set with Vaccinia virus; with Reovirus sp.; in [2]; with Poliovirus 1) was inactive. In data set [3], this compound showed a CC50 at 96 h of 26 µM. The EC50 in data set [4] was above 51 µM; in the data set with Yellow fever virus it was above 100 µM; in [5], above 25 µM.
As for `COCCN(CCOC)c1oc2cc(OC)ccc2c(=O)c1Cc1c(OC(C)=O)ccc2ccc(=O)oc12`, the outcome (in data set [1]; in the data set on Vaccinia virus; in the data set on Reovirus sp.; in [2]; with Poliovirus 1) was inactive. The compound also yielded a CC50 at 96 h in data set [3] above 100 µM. The EC50 is above 100 µM in data set [4], above 100 µM in the data set on Yellow fever virus and 7 µM in data set [5].
With `C[C@@]1(O)[C@H](O)[C@@H](CO)O[C@H]1n1cnc2c(=O)[nH]c(N)nc21` [2'-B-METHYL-GUANOSINE], the result (in [1]; with Vaccinia virus; with Reovirus sp.; in data set [2]; in the data set on Poliovirus 1) was inactive. The CC50 at 96 h in [3] is above 100 µM. Besides, the EC50 was 4 µM in [4], 1 µM in the data set on Yellow fever virus and above 100 µM in [5].
For `CC(=O)Oc1ccc2c(C)cc(=O)oc2c1Cc1c(-c2ccccc2)[nH]c2ccccc12`, the outcome (in data set [1]; with Vaccinia virus; with Reovirus sp.; in [2]; in the data set on Poliovirus 1) was inactive. Besides, the CC50 at 96 h in [3] is above 100 µM. Also, the EC50 (in [4]; with Yellow fever virus; in [5]) was above 100 µM each time.
As for `Cc1cc(=O)oc2c(CN3CCCCC3)c(O)ccc12`, the outcome (in data set [1]; in the data set with Vaccinia virus; in the data set with Reovirus sp.; in [2]; with Poliovirus 1) was inactive. The CC50 at 96 h in [3] was above 100 µM. Further, the EC50 (in data set [4]; in the data set on Yellow fever virus; in data set [5]) was above 100 µM each time.
On to `CC(=O)c1ccc(N2CCN(Cc3c(O)ccc4c(C)cc(=O)oc34)CC2)cc1`, for which the outcome (in data set [1]; with Vaccinia virus; in the data set on Reovirus sp.; in data set [2]; in the data set on Poliovirus 1) was inactive. For the same compound, in data set [3], the midpoint of cytotoxicity, the CC50 at 96 h, lay at 59 µM. The EC50 (in data set [4]; in the data set on Yellow fever virus; in data set [5]) was above 100 µM each time.
For the compound `CCC(=O)Oc1[nH]c2ccccc2c1Cc1c(OC(C)=O)ccc2ccc(=O)oc12`, the result (in data set [1]; in the data set on Vaccinia virus; with Reovirus sp.; in [2]; in the data set with Poliovirus 1) was inactive. For the same compound, the CC50 at 96 h in data set [3] is 67 µM. For the same compound, the EC50 in data set [4] is above 64 µM; in the data set with Yellow fever virus, above 72 µM; in data set [5], 60 µM.
As for `Cc1cc(=O)oc2c(CN3CCN(C/C=C/c4ccccc4)CC3)c(OC(=O)c3ccccc3)ccc12`, the outcome (in data set [1]; in the data set with Vaccinia virus; in the data set on Reovirus sp.; in data set [2]; in the data set with Poliovirus 1) was inactive. For the same compound, in [3], half-maximal cytotoxicity (CC50 at 96 h) was put at 45 µM. For the same compound, the figures for the EC50 (in data set [4]; with Yellow fever virus; in data set [5]) were 19 µM, above 100 µM and above 80 µM, respectively.
Consider `CCN(CC)c1oc2cc(OC)ccc2c(=O)c1Cc1c(OC(C)=O)ccc2ccc(=O)oc12`, for which the result (in data set [1]; with Vaccinia virus; with Reovirus sp.; in [2]; in the data set with Poliovirus 1) was inactive. Besides, the CC50 at 96 h in data set [3] is 83 µM. Also, the results for the EC50 (in [4]; in the data set with Yellow fever virus; in data set [5]) were above 100 µM, above 100 µM and 20 µM, respectively.
`COc1ccc2c(=O)c(Cc3c(OC(C)=O)ccc4c(C)cc(=O)oc34)c(N(C)C)oc2c1`: the outcome (in data set [1]; with Vaccinia virus; in the data set on Reovirus sp.; in [2]; in the data set with Poliovirus 1) was inactive. Besides, the 50% cytotoxic concentration (CC50) at 96 h in [3] came to 42 µM. Also, the EC50 in data set [4] was above 28 µM; in the data set on Yellow fever virus it was above 100 µM; in data set [5], 25 µM.
For the compound `CCC(=O)Oc1ccc2ccc(=O)oc2c1Cc1c(C)[nH]c2ccccc12`, the result (in data set [1]; in the data set with Vaccinia virus; with Reovirus sp.; in [2]; in the data set with Poliovirus 1) was inactive. Further, it took 80 µM to reach half-maximal cytotoxicity in data set [3] (CC50 at 96 h). Also, the EC50 is above 51 µM in data set [4], above 100 µM with Yellow fever virus and above 100 µM in data set [5].
In the case of `Cc1cc(=O)oc2c(CN3CCN(C)CC3)c(OC(=O)c3ccccc3)ccc12`, the outcome (in data set [1]; in the data set with Vaccinia virus; in the data set on Reovirus sp.; in [2]; in the data set on Poliovirus 1) was inactive. For the same compound, the CC50 at 96 h in data set [3] was above 100 µM. For the same compound, the EC50 (in data set [4]; in the data set with Yellow fever virus; in data set [5]) was above 100 µM each time.
On to `CCCOc1ccc2c(C)cc(=O)oc2c1CN1CCc2ccccc2C1`, for which the result (in data set [1]; in the data set with Vaccinia virus; in the data set with Reovirus sp.; in data set [2]; in the data set with Poliovirus 1) was inactive. The compound also registered a CC50 at 96 h in data set [3] above 100 µM. Also, the EC50 was 20 µM in data set [4], above 100 µM with Yellow fever virus and above 93 µM in data set [5].
With `COc1ccc2[nH]cc(Cc3c(OC(C)=O)ccc4c(C)cc(=O)oc34)c2c1`, the result (in [1]; in the data set with Vaccinia virus; with Reovirus sp.; in data set [2]; in the data set on Poliovirus 1) was inactive. Moreover, the midpoint of cytotoxicity in data set [3], the CC50 at 96 h, lay at 72 µM. Besides, the EC50 (in [4]; with Yellow fever virus; in data set [5]) was above 100 µM each time.
In the case of `CCCOc1ccc2ccc(=O)oc2c1CN1CCc2ccccc2C1`, the outcome (in data set [1]; in the data set on Vaccinia virus; in the data set with Reovirus sp.; in data set [2]; with Poliovirus 1) was inactive. Further, the midpoint of cytotoxicity in [3], the CC50 at 96 h, lay at 11 µM. The EC50 with Yellow fever virus was above 19 µM; in data set [5] it was above 25 µM.
